According to patent US11944624B2, “Peptide and small molecule agonists of EphA and their uses” (CASE WESTERN RESERVE UNIVERSITY, priority 2017, dated 2024):

How the values were obtained:
Assay type in all cases: cell-based
endogenous EphB4 = biological target: T1, endogenous EphB4 (Homo sapiens, UniProt P54760); assay: Endogenous EphB4 activation in HEK 293 vector control cells
T1 construct: host or cells: HEK 293 (vector control)
T1 sequence (P54760 16-987): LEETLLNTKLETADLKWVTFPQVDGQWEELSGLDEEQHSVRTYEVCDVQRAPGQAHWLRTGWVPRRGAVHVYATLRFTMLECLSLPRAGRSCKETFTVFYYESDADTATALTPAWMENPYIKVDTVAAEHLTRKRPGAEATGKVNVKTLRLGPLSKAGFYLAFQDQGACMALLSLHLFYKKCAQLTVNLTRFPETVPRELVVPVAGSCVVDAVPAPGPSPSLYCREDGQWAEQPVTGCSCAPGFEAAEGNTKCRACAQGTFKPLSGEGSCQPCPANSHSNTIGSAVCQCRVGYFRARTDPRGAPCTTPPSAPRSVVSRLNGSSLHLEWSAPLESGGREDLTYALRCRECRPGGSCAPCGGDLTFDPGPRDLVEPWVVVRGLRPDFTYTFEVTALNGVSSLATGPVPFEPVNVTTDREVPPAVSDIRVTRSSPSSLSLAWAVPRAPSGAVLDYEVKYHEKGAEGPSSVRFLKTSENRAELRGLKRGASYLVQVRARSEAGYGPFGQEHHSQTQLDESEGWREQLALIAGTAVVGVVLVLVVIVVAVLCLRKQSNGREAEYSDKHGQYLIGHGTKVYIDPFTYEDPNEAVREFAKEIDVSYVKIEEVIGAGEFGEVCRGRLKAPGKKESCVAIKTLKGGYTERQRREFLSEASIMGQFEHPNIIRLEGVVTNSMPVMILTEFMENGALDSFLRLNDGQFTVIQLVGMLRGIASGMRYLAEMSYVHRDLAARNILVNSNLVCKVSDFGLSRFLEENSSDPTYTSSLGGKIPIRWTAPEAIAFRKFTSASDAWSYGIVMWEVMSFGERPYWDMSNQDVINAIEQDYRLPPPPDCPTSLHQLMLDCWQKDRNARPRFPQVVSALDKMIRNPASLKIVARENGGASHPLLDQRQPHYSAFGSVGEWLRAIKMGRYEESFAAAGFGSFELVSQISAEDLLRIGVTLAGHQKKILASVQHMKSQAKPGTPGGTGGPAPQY
Method: (§1) Cells were plated in 24-well dishes at a density of 100,000 cells/well and grown for 24 hours prior to stimulation with appropriate compounds and ephrins for the given amounts of time. Compounds were prepared in DMSO at 500 times the final concentrations and 0.2% DMSO was used as vehicle control. Following treatment, cells were lysed directly in SDS Gel Loading Buffer and immunoblotted as described previously. […] For immunoprecipitation, 300,000 cells/well were plated in 6-well dishes and lysed in modified RIPA Buffer (20 mM Tris-HCl pH 7.4, 20 mM NaF, 150 mM NaCl, 10% glycerol, 0.1% SDS, 0.5% DCA, 2 mM EDTA, 1% Triton X-100) following treatment. Either 10 μg of ephrin-A1-Fc, or 4 mg of EphA2 mouse monoclonal antibody (Clone D7, Millipore) were used, and mouse IgG was used as a negative control for EphA2 IP. […] For this purpose, HEK 293 cell lines overexpressing EphA1, EphA2, EphA3, EphA4, and EphB3 kinases were utilized.

EphA2 = EphA2 (Homo sapiens, UniProt P29317); assay: EphA2 internalization in MDA-MB-231 cells (immunofluorescence, Example 2); design: expressed in transfected cells; host or cells: MDA-MB-231 (MDA-231-A2 / MDA-MB-231-A2), puromycin selected; conditions: 60 min, Doxazosin 50 μM
Chain of EphA2 (P29317 24-976): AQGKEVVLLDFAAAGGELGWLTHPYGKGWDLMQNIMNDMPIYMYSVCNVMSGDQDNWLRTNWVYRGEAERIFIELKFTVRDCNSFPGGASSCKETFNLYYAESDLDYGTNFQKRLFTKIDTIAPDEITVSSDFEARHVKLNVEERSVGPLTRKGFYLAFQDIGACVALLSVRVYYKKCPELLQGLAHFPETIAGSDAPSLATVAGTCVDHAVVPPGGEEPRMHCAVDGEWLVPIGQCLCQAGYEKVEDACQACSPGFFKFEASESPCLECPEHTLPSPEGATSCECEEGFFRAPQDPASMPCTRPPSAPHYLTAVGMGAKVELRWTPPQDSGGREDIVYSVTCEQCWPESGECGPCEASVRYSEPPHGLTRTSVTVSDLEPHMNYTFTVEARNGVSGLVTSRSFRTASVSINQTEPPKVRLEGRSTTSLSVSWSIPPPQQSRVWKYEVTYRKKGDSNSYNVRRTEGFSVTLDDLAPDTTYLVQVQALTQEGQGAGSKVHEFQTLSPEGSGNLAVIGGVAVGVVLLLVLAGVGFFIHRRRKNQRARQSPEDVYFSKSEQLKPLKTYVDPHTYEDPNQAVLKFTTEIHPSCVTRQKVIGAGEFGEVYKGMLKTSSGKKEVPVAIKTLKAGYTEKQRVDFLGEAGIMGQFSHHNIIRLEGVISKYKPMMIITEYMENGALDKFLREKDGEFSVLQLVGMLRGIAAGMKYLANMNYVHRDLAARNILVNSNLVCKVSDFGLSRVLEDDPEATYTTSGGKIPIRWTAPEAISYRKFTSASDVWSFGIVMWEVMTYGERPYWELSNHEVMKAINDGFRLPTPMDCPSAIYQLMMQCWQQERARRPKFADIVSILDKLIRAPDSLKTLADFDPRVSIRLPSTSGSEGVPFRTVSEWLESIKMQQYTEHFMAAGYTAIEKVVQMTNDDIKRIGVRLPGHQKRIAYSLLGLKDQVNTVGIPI
Method: This was performed using the MDA-MB-231 cell line. This cell line spreads well in culture, thereby facilitating immunofluorescence detection of cell surface and intracellular EphA2 (FIG. 28). […] MDA-MB-231 cells were plated in 24-well plates on 10 mm square coverslips coated with 10 μg/ml fibronectin and incubated 24-48 hrs before treatment with 50 μM Doxazosin and various doses of compound 27 (0.4, 2, 10, 50 μM) in 0.5% DMSO for 1 hr. As another positive control, cells were treated with 2 μg/ml ephrin-A1-Fc. Cells were then washed with PBS and fixed with 4% paraformaldehyde (Electron Microscopy Sciences, Hatfield, PA) on ice for 10 min, followed by washing and permeabilization with 0.4% NP-40 for 10 min on ice. […] Cells were then incubated in primary mouse EphA2 antibody (D7, 1:100) in 0.1% BSA/PBS for 1 hr at room temperature, washed in PBS and BSA/PBS, followed by incubation in secondary donkey anti-mouse Alexa Fluor 488 antibody (1:300) in BSA/PBS for 30 min at room temperature. Cells were washed in PBS and BSA/PBS, followed by mounting in DAPI Mounting Medium (Electron Microscopy Sciences). Images were taken with a Leica microscope.

EphA3 = biological target: T2, EphA3 (Homo sapiens, UniProt P29320); assay: EphA3 activation in HEK 293 cells overexpressing EphA3; conditions: HEK 293 overexpressing EphA3, compared to EphA2 and EphA4
T2 construct: expressed in transfected cells; host or cells: HEK 293
T2 sequence (P29320 21-983): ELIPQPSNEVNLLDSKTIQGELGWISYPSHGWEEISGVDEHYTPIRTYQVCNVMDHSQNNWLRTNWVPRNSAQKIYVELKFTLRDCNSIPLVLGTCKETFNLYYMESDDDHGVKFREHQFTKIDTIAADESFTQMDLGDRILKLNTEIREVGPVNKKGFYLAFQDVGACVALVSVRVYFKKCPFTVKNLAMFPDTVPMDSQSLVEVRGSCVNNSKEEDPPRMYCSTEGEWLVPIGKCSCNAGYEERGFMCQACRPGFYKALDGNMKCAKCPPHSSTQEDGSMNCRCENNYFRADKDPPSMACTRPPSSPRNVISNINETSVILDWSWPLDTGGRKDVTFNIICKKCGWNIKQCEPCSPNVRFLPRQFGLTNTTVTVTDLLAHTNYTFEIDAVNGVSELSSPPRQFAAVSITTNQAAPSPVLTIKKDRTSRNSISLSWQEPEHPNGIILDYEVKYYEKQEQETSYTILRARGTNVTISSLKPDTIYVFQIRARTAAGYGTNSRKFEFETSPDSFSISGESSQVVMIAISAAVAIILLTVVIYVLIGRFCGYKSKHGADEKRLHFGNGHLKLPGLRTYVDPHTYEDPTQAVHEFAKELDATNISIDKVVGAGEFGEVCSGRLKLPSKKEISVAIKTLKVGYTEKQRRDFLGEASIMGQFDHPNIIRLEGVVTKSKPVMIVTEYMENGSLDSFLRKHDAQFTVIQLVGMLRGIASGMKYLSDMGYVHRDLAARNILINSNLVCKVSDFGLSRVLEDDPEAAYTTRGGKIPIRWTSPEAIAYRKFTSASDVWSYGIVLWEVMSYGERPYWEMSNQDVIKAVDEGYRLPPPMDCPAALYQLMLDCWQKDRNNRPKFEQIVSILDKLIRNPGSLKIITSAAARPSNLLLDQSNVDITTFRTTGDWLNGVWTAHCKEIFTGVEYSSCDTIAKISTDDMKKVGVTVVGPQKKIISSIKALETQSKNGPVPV
Method: as §1

## COc1cc2nc(N3CCN(C(=O)C4COc5ccccc5O4)CC3)nc(N)c2cc1OC (stereo not drawn) [Doxazosin, 2-[4-(2,3-Dihydro-1,4-benzodioxine-2-carbonyl)piperazin-1-yl]-6,7-dimethoxyquinazolin-4-amine]
Endogenous EphB4
  endogenous EphB4 activation: endogenous EphB4 was not activated
EphA2
  EphA2 internalization: stimulated significant EphA2 internalization
EphA3
  EphA3 activation: activation of EphA3 was weak
